In this experiment the target is T1, GLP-1R (Homo sapiens, UniProt P43220).
T1 construct: expressed in transfected cells
The experiment in a line: GLP-1R agonistic effect in GLP1R-cAmp-Luc cells (luciferase reporter; titled 'Enzymatic assay'). It counts as cell-based. The conditions noted are these: for EC50: 4 hours incubation, firefly luciferin signal; for EC50 of Positive reference / EC50 of Compound of the Present Application: Positive reference is PF-06882961. The method, then: The GLP-1R agonistic effects of the test compounds were determined using GLP1R-cAmp-Luc cells. 1) The test compound was dissolved in DMSO and mixed well until the test compound was completely dissolved. The test compounds were dissolved in DMSO to prepare 10 mM stock solutions. All compounds were diluted with DMEM medium (high sugar, Puromycin^+, Hygromycin B^+) to an initial concentration of 1250 nM, and then subjected to 5-fold serial dilution to a total of 7 concentration gradients. The GLP1R-cAmp-Luc cells were seeded in white-wall 96-well cell culture plates at a density of 1×10^5/mL, with 90 µL cell suspension per well; the test compound at each of the 7 concentration gradients was added at 10 µL per well, with the actual initial working concentration of 125 nM; and the cells were placed in a 37 °C, 5% CO2 cell incubator for 4 hours; 2) 100 µL of luciferin potassium salt solution diluted to 300 µg/mL in PBS was added to each well at a working concentration of 150 µg/mL and incubated at room temperature for 30 minutes; 3) fluorescence signals of firefly luciferin were measured with a multifunctional microplate reader (PerkinElmer, Nivo); and the fluorescence values were processed using GraphPad Prism software to calculate EC50 values.
(In a reporter assay the amount or activity of a reporter protein is the signal.)

In general, EC50 refers to the concentration at which the effect is half-maximal.

T1 sequence (P43220 24-463, species assumed): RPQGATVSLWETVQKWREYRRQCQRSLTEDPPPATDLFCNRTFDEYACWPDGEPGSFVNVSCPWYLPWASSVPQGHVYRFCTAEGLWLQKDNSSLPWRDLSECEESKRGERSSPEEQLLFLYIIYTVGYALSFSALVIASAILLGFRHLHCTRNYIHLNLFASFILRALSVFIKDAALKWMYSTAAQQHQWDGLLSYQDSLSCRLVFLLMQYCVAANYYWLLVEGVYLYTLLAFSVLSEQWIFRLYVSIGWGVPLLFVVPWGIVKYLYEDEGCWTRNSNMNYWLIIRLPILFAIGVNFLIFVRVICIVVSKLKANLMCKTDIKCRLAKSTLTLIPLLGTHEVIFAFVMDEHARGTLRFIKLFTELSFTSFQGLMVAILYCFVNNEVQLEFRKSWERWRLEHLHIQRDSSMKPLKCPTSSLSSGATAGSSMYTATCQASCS

For `N#Cc1ccc(COc2cccc(-c3ccc(Cc4nc5ccc(C(=O)O)cc5n4C[C@@H]4CCO4)c4c3OCO4)n2)c(F)c1` [Compound 1, (S)-2-((7-(6-((4-cyano-2-fluorobenzyl)oxy)pyridin-2-yl)benzo[d][1,3]dioxolan-4-yl)methyl)-1-(oxetan-2-ylmethyl)-1H-benzo[d]imidazole-6-carboxylic acid], the EC50 lay within 5 to 10 nM.
On the same count and under the same terms, in the case of `N#Cc1ccc(COc2cccc(-c3ccc(Cc4nc5ccc(C(=O)O)cc5n4C[C@@H]4CCO4)c4c3OCC4)n2)c(F)c1` [Compound 2, (S)-2-((7-(6-((4-cyano-2-fluorobenzyl)oxy)pyridin-2-yl)-2,3-dihydrobenzofuran-4-yl)methyl)-1-(oxetan-2-ylmethyl)-1H-benzo[d]imidazole-6-carboxylic acid] it was 1 to 5 nM.
With `CC(c1ccc(-c2cccc(OCc3ccc(C#N)cc3F)n2)c2c1CCO2)c1nc2ccc(C(=O)O)cc2n1C[C@@H]1CCO1` (stereo partly drawn) [Compound 6, 2-(1-(7-(6-((4-cyano-2-fluorobenzyl)oxy)pyridin-2-yl)-2,3-dihydrobenzofuran-4-yl)ethyl)-1-(((S)-oxetan-2-yl)methyl)-1H-benzo[d]imidazole-6-carboxylic acid], the EC50 is 5 to 10 nM.
For the compound `N#Cc1ccc(COc2cccc(-c3cc(Cl)c(Cc4nc5ccc(C(=O)O)cc5n4C[C@@H]4CCO4)c4c3OCC4)n2)c(F)c1` [Compound 7, (S)-2-((5-chloro-7-(6-((4-cyano-2-fluorobenzyl)oxy)pyridin-2-yl)-2,3-dihydrobenzofuran-4-yl)methyl)-1-(oxetan-2-ylmethyl)-1H-benzo[d]imidazole-6-carboxylic acid], the EC50 is no more than 1 nM and the “EC50 of Positive reference / EC50 of Compound of the Present Application” value was “Ratio ≥10”.
With `O=C(O)c1ccc2nc(Cc3ccc(-c4cccc(OCc5ccc(Cl)cc5F)n4)c4[nH]ccc34)n(C[C@@H]3CCO3)c2c1` [Compound 9, (S)-2-((7-(6-((4-chloro-2-fluorobenzyl)oxy)pyridin-2-yl)-1H-indol-4-yl)methyl)-1-(oxetan-2-ylmethyl)-1H-benzo[d]imidazole-6-carboxylic acid], the EC50 is 1 to 5 nM.
As to `O=C(O)c1ccc2nc(Cc3c(F)cc(-c4cccc(OCc5ccc(Cl)cc5F)n4)c4c3CCO4)n(C[C@@H]3CCO3)c2c1` [Compound 12, (S)-2-((7-(6-((4-chloro-2-fluorobenzyl)oxy)pyridin-2-yl)-5-fluoro-2,3-dihydrobenzofuran-4-yl)methyl)-1-(oxetan-2-ylmethyl)-1H-benzo[d]imidazole-6-carboxylic acid], the EC50 was no more than 1 nM and the “EC50 of Positive reference / EC50 of Compound of the Present Application” value was “Ratio ≥10”.
`N#Cc1ccc(COc2cccc(-c3cc(F)c(Cc4nc5c(F)cc(C(=O)O)cc5n4C[C@@H]4CCO4)c4c3OCC4)n2)c(F)c1` [Compound 13, (S)-2-((7-(6-((4-cyano-2-fluorobenzyl)oxy)pyridin-2-yl)-5-fluoro-2,3-dihydrobenzofuran-4-yl)methyl)-4-fluoro-1-(oxetan-2-ylmethyl)-1H-benzo[d]imidazole-6-carboxylic acid]: the EC50 is no more than 1 nM and the “EC50 of Positive reference / EC50 of Compound of the Present Application” value is given as “Ratio ≥10”.
Compound `N#CCC1(Cn2c(Cc3c(Cl)cc(-c4cccc(OCc5ccc(C#N)cc5F)n4)c4c3CCO4)nc3ccc(C(=O)O)cc32)CC1` [Compound 18, 2-((5-chloro-7-(6-((4-cyano-2-fluorobenzyl)oxy)pyridin-2-yl)-2,3-dihydrobenzofuran-4-yl)methyl)-1-((1-(cyanomethyl)cyclopropyl)methyl)-1H-benzo[d]imidazole-6-carboxylic acid] returned an EC50 of 1 to 5 nM.
For `N#CCC1(Cn2c(Cc3c(Cl)cc(-c4cccc(OCc5ccc(C#N)cc5F)n4)c4c3CCO4)nc3ccc(C(=O)O)nc32)CC1` [Compound 19, 2-((5-chloro-7-(6-((4-cyano-2-fluorobenzyl)oxy)pyridin-2-yl)-2,3-dihydrobenzofuran-4-yl)methyl)-3-((1-(cyanomethyl)cyclopropyl)methyl)-3H-imidazo[4,5-b]pyridine-5-carboxylic acid], the EC50 lay within 1 to 5 nM.
On the same count and under the same terms, as for `O=C(O)c1ccc2nc(Cc3ccc(-c4cccc(OCc5ccc(Cl)cc5F)n4)c4c3CCC4=O)n(C[C@@H]3CCO3)c2c1` [Compound 20, (S)-2-((7-(6-((4-chloro-2-fluorobenzyl)oxy)pyridin-2-yl)-1-oxo-2,3-dihydro-1H-inden-4-yl)methyl)-1-(oxetan-2-ylmethyl)-1H-benzo[d]imidazole-6-carboxylic acid], the figure is 1 to 5 nM.
`COc1cc(C(F)(F)F)ccc1COc1cccc(-c2ccc(Cc3nc4c(OC)cc(C(=O)O)cc4n3C[C@@H]3CCO3)c3c2OCCO3)n1` [Compound 62, (S)-4-methoxy-2-((8-(6-((2-methoxy-4-(trifluoromethyl)benzyl)oxy)pyridin-2-yl)-2,3-dihydrobenzo[b][1,4]dioxan-5-yl)methyl)-1-(oxetan-2-ylmethyl)-1H-benzo[d]imidazole-6-carboxylic acid] returned an EC50 of 1 to 5 nM.
In turn, `COc1cc(C(F)(F)F)ccc1COc1cccc(-c2cc(F)c(Cc3nc4c(OCC(F)F)cc(C(=O)O)cc4n3CC3(CF)CC3)c3c2OCC3)n1` [Compound 79] registered a half-maximal effective concentration (EC50) of no more than 1 nM.
Take `COc1cc(C(F)(F)F)ccc1COc1cccc(-c2cc(F)c(Cc3nc4c(OC)cc(C(=O)O)cc4n3C[C@@H]3CCO3)c3c2OCC3)n1` [Compound 80, (S)-2-((5-fluoro-7-(6-((2-methoxy-4-(trifluoromethyl)benzyl)oxy)pyridin-2-yl)-2,3-dihydrobenzofuran-4-yl)methyl)-4-methoxy-1-(oxetan-2-ylmethyl)-1H-benzo[d]imidazole-6-carboxylic acid]: the EC50 is no more than 1 nM and the “EC50 of Positive reference / EC50 of Compound of the Present Application” value is “Ratio ≥10”.
Taken in the same sequence, the figures for `COc1cc(C(=O)O)cc2c1nc(Cc1c(F)cc(-c3cccc(OCc4ccc(Cl)cc4F)n3)c3c1CCO3)n2C[C@@H]1CCO1` [Compound 81, (S)-2-((7-(6-((4-chloro-2-fluorobenzyl)oxy)pyridin-2-yl)-5-fluoro-2,3-dihydrobenzofuran-4-yl)methyl)-4-methoxy-1-(oxetan-2-ylmethyl)-1H-benzo[d]imidazole-6-carboxylic acid] were no more than 1 nM and “Ratio ≥10”.
Taken in the same sequence, the figures for `COc1cc(C(=O)O)cc2c1nc(Cc1c(F)cc(-c3cccc(OCc4ccc(Cl)cc4OC(F)F)n3)c3c1CCO3)n2C[C@@H]1CCO1` [Compound 84, (S)-2-((7-(6-((4-chloro-2-(difluoromethoxy)benzyl)oxy)pyridin-2-yl)-5-fluoro-2,3-dihydrobenzofuran-4-yl)methyl)-4-methoxy-1-(oxetan-2-ylmethyl)-1H-benzo[d]imidazole-6-carboxylic acid] were no more than 1 nM and “Ratio ≥10”.
As to `O=C(O)c1cc(OCC(F)F)c2nc(Cc3c(F)cc(-c4cccc(OCc5ccc(Cl)cc5OC(F)F)n4)c4c3OCO4)n(CC3(CF)CC3)c2c1` [Compound 86, 2-((7-(6-((4-Chloro-2-(difluoromethoxy)benzyl)oxy)pyridin-2-yl)-5-fluoro-benzo[d][1,3]dioxolan-4-yl)methyl)-4-(2,2-difluoroethoxy)-1-((1-(fluoromethyl)cyclopropyl)methyl)-1H-benzo[d]imidazole-6-carboxylic acid], the EC50 lay within 1 to 5 nM.
Turning to `O=C(O)c1ccc2nc(Cc3c(F)cc(-c4cccc(OCc5ccc(Cl)cc5OC(F)F)n4)c4c3CCO4)n(C[C@@H]3CCO3)c2c1` [Compound 95, (S)-2-((7-(6-((4-chloro-2-(difluoromethoxy)benzyl)oxy)pyridin-2-yl)-5-fluoro-2,3-dihydrobenzofuran-4-yl)methyl)-1-(oxetan-2-ylmethyl)-1H-benzimidazole-6-carboxylic acid], the EC50 is no more than 1 nM.
`COc1cc(C(=O)O)cc2c1nc(Cc1c(F)cc(-c3cccc(OCc4ccc(C#N)cc4F)n3)c3c1CCO3)n2C[C@@H]1CCO1` [Compound 100, (S)-2-((7-(6-((4-cyano-2-fluorobenzyl)oxy)pyridin-2-yl)-5-fluoro-2,3-dihydrobenzofuran-4-yl)methyl)-4-methoxy-1-(oxetan-2-ylmethyl)-1H-benzo[d]imidazole-6-carboxylic acid]: the 50% effective concentration (EC50) was no more than 1 nM and the “EC50 of Positive reference / EC50 of Compound of the Present Application” value is listed as “Ratio ≥10”.
Taken in the same sequence, the figures for `COc1cc(C(=O)O)cc2c1nc(Cc1c(F)cc(-c3ccnc(OCc4ccc(Cl)cc4F)n3)c3c1CCO3)n2C[C@@H]1CCO1` [Compound 106, (S)-2-((7-(2-((4-chloro-2-fluorobenzyl)oxy)pyrimidin-4-yl)-5-fluoro-2,3-dihydrobenzofuran-4-yl)methyl)-4-methoxy-1-(oxetan-2-ylmethyl)-1H-benzo[d]imidazole-6-carboxylic acid] were no more than 1 nM and “Ratio ≥10”.
As to `COc1cc(C(=O)O)cc2c1nc(Cc1c(F)cc(-c3cccc(OCc4ccc(Cl)cc4F)c3)c3c1CCO3)n2C[C@@H]1CCO1` [Compound 107, (S)-2-((7-(3-((4-chloro-2-fluorobenzyl)oxy)phenyl)-5-fluoro-2,3-dihydrobenzofuran-4-yl)methyl)-4-methoxy-1-(oxetan-2-ylmethyl)-1H-benzo[d]imidazole-6-carboxylic acid], the EC50 is 1 to 5 nM.

Source of the values: patent publication EP4748839A1 (CSPC Zhongqi Pharmaceutical Technology (Shijiazhuang) Co., …, priority 2023, dated 2025).
